Measured values taken from patent publication US7572765B2, “Conformationally constrained parathyroid hormone (PTH) analogs” (The General Hospital Corporation, priority 2001, dated 2009).
Square brackets hold non-standard residues; d marks the D form. Peptide text beside a SMILES is read from it. hArg = N=C(N)NCCCC[C@H](N)C(=O)O; Aib = CC(C)(N)C(=O)O

Assay: Circular dichroism spectroscopy (helical content)
Format: physicochemical
Conditions: for [0]222obs × 10^−3, Phos. / [0]222obs × 10^−3, Phos + TFE: 20 μM peptide; for [0]222obs × 10^−3, Phos.: 50 mM phosphate buffer pH 7.4; for [0]222obs × 10^−3, Phos + TFE / helical residues (%), Phos + TFE: 50 mM phosphate buffer with trifluoroethanol (20%); for helical residues (%), Phos + TFE / helical residues (%), Phos.: from elipticity at 222 nM; for helical residues (%), Phos.: 50 mM phosphate buffer
Experimental: Circular Dichroism. Circular Dichroism spectra were recorded on a Jasco model 710 spectropolarimeter; peptides were analyzed at a concentration of20 μM in 50 mM sodium phosphate buffer pH 7.4, or the same buffer containing 2,2,2-trifluoroethanol at 20% (v/v). Spectroscopic scans were preformed at 20° C. and at wavelengths between […], with data recored at each 1 nM interval. The spectral bandwidth was 1.5 nM and 8 scans were accumulated and averaged for each sample. At each wavelength, the mean residue elipticity [θ×100/l×C×n); where θ is the raw elipticity value (in dimensions of millidegree), l is the sample path length, C=is the molar peptide concentration, and n is the number of residues in the peptide (Bowen, W. P., and Jerman, J. C., Trends in Pharmacol. Sci. 16: 413-417 (1995)). The helical content of each peptide was estimated by dividing [θ] observed at 222 nM for that peptide by −28,100, which is the reported [θ]222obs for a model helical decapeptide (Bowen, W. P., and Jerman, J. C., Trends in Pharmacol. Sci. 16: 413-417 (1995)).
Circular dichroism (CD) spectroscopy was used to analyze the potential effects that the Aib substitutions had on peptide secondary structure when the peptides were free in solution. Samples were analyzed in both aqueous phosphate buffer and in phosphate buffer containing 2,2,2-trifloroethanol, an organic solvent which promotes helical structure in oligopeptides, including PTH peptide fragments (Pellegrini, M., et al., J. Biol. Chem. 273:10420-10427 (1998); Gronwald, W., et al., Biol. Chem. Hoppe Seyler 377:175-186 (1996); Barden, J. A., and Kemp, B. E., Biochemistry 32:7126-7132 (1993)). In phosphate buffer, the helical content of each peptide, estimated from the elipticity observed at 222 nM, was small (≦16%); however, [Aib^1,3,M]PTH(1-14) contained nearly twice as much helix as did [M]PTH(1-14) (16% and 8.1% respectively), as did [Aib^1,3,M]PTH(1-1l), as compared to […] (13% and 7.5% respectively, Table 4). […] The higher helical contents of these two peptides were evident not only from the negative elipticities at […] and 222 nM, but also from the positive elipticities at 192 nM (FIG. 6).

With `CC[C@H](C)[C@H](NC(=O)[C@H](CCC(=O)O)NC(=O)C(C)(C)NC(=O)[C@@H](NC(=O)C(C)(C)N)C(C)C)C(=O)N[C@@H](CCC(N)=O)C(=O)N[C@@H](CC(C)C)C(=O)N[C@@H](CCSC)C(=O)N[C@@H](Cc1c[nH]cn1)C(=O)N[C@@H](CCC(N)=O)C(N)=O` [[Aib^1,3,M]PTH(1-10), [Aib^1,3,Gln^10]PTH(1-10)] (H-[Aib]V[Aib]EIQLMHQ-NH2) the “[0]222obs × 10^−3, Phos.” value was −3.2, the “[0]222obs × 10^−3, Phos + TFE” value was −13.1 and the “helical residues (%), Phos + TFE” value was “approximately 47%”. For the same molecule, the “helical residues (%), Phos + TFE” value (M]PTH(1-10)) was 47% and the “helical residues (%), Phos.” value was 11%.
With `CC[C@H](C)[C@H](NC(=O)[C@H](CCC(=O)O)NC(=O)C(C)(C)NC(=O)[C@@H](NC(=O)C(C)(C)N)C(C)C)C(=O)N[C@@H](CCC(N)=O)C(=O)N[C@@H](CC(C)C)C(=O)N[C@@H](CCSC)C(=O)N[C@@H](Cc1c[nH]cn1)C(=O)N[C@@H](CCC(N)=O)C(=O)N[C@@H](CCCCNC(=N)N)C(N)=O` [[Aib^1,3,M]PTH(1-11), AibValAibGluIleGlnLeuMetHisGlnHar] (H-[Aib]V[Aib]EIQLMHQ[hArg]-NH2) the “[0]222obs × 10^−3, Phos.” value was −3.7, the “[0]222obs × 10^−3, Phos + TFE” value was −16.1 and the “helical residues (%), Phos + TFE” value was 57%. For the same molecule, the “helical residues (%), Phos.” value was 13%.
In the case of `CC[C@H](C)[C@H](NC(=O)[C@H](CCC(=O)O)NC(=O)C(C)(C)NC(=O)[C@@H](NC(=O)C(C)(C)N)C(C)C)C(=O)N[C@@H](CCC(N)=O)C(=O)N[C@@H](CC(C)C)C(=O)N[C@@H](CCSC)C(=O)N[C@@H](Cc1c[nH]cn1)C(=O)N[C@@H](CCC(N)=O)C(=O)N[C@@H](CCCCNC(=N)N)C(=O)N[C@@H](C)C(=O)N[C@@H](CCCCN)C(=O)N[C@@H](Cc1c[nH]c2ccccc12)C(N)=O` [[Aib^1,3,M]PTH(1-14), AibValAibGluIleGlnLeuMetHisGlnHarAlaLysTrp] (H-[Aib]V[Aib]EIQLMHQ[hArg]AKW-NH2), the “[0]222obs × 10^−3, Phos.” value is reported as −4.6, the “[0]222obs × 10^−3, Phos + TFE” value is reported as −15.7 and the “helical residues (%), Phos + TFE” value is reported as 56%. The “helical residues (%), Phos.” value was 16%.
With `CC[C@H](C)[C@H](NC(=O)[C@H](CCC(=O)O)NC(=O)[C@H](C)NC(=O)[C@@H](NC(=O)[C@H](C)N)C(C)C)C(=O)N[C@@H](CCC(N)=O)C(=O)N[C@@H](CC(C)C)C(=O)N[C@@H](CCSC)C(=O)N[C@@H](Cc1c[nH]cn1)C(=O)N[C@@H](CCC(N)=O)C(=O)N[C@@H](CCCCNC(=N)N)C(=O)N[C@@H](C)C(=O)N[C@@H](CCCCN)C(=O)N[C@@H](Cc1c[nH]c2ccccc12)C(N)=O` [[M]PTH(1-14), [Ala^3,12,Gln^10,Har^11,Trp^14]PTH(1-14)amide, reference compound] (H-AVAEIQLMHQ[hArg]AKW-NH2) the “[0]222obs × 10^−3, Phos.” value was −2.3, the “[0]222obs × 10^−3, Phos + TFE” value was −11.9 and the “helical residues (%), Phos + TFE” value was 42%. For the same molecule, the “helical residues (%), Phos.” value was 8.1%.
In the case of “H-AVSEIQLMHNLGKH-NH2 [PTH(1-14), reference compound]”, the “[0]222obs × 10^−3, Phos.” value is reported as −2.6, the “[0]222obs × 10^−3, Phos + TFE” value is reported as −10.6 and the “helical residues (%), Phos + TFE” value is reported as 38%. For the same molecule, the “helical residues (%), Phos.” value was 9.1%.
